Values after ≈ are worked out from the molar mass of the structure shown. Some results are limits rather than exact numbers.

Series [1] concerns Enterococcus faecium. Briefly: Antibacterial activity against vancomycin-sensitive Enterococcus faecium 09-10 by agar dilution method. Type of series: functional. For orientation: In agar dilution, organisms are placed on agar that contains the substance at set levels.
Series [2] deals with Klebsiella pneumoniae. Kind of series: Antibacterial activity against extended-spectrum beta-lactamase-positive Klebsiella pneumoniae ATCC 700603 by agar dilution method. The class given is functional.
Series [3] deals with Pseudomonas aeruginosa. Kind of series: Antibacterial activity against Pseudomonas aeruginosa 09-14 by agar dilution method. The class given is functional.
The test system of series [4] is Klebsiella pneumoniae. Briefly: Antibacterial activity against extended-spectrum beta-lactamase-negative Klebsiella pneumoniae 7 by agar dilution method. Type of series: functional.
The subject of series [5] is Escherichia coli. Kind of series: Antibacterial activity against extended-spectrum beta-lactamase-negative Escherichia coli 1515 by agar dilution method. The class given is functional.
Series [6] has as its system Pseudomonas aeruginosa. Briefly: Antibacterial activity against Pseudomonas aeruginosa ATCC 27853 by agar dilution method. The class given is functional.
The subject of another series is Proteus vulgaris. Kind of series: Antibacterial activity against Proteus vulgaris ATCC 29905 by agar dilution method. Type of series: functional.
In another series the test system is Citrobacter freundii. Briefly: Antibacterial activity against Citrobacter freundii ATCC 43864 by agar dilution method. Type of series: functional.
For series [7], the system named is Klebsiella pneumoniae. Briefly: Antibacterial activity against extended-spectrum beta-lactamase-positive Klebsiella pneumoniae 09-25 by agar dilution method. Type of series: functional.
In series [8] the test system is Klebsiella pneumoniae. Briefly: Antibacterial activity against extended-spectrum beta-lactamase-negative Klebsiella pneumoniae 09-8 by agar dilution method. Type of series: functional.
In a further series the test system is Serratia marcescens. Briefly: Antibacterial activity against Serratia marcescens 41002 by agar dilution method. The class given is functional.
Series [9] in a line: Cytotoxicity against HEK293T cells after 48 hrs by MTS assay. As to conditions: human. The class given is cell-based, HEK-293T. In general terms: Formazan colour is commonly taken as a measure of viable cells.
The subject of another series is Morganella morganii. Briefly: Antibacterial activity against Morganella morganii ATCC 25830 by agar dilution method. Type of series: functional.
A further series concerns Enterobacter cloacae. Briefly: Antibacterial activity against Enterobacter cloacae 45301 by agar dilution method. Type of series: functional.
The test system of series [10] is Pseudomonas aeruginosa. Briefly: Antibacterial activity against Pseudomonas aeruginosa PAO1 by agar dilution method. Type of series: functional.
For series [11], the system named is Escherichia coli. Briefly: Antibacterial activity against extended-spectrum beta-lactamase-positive Escherichia coli 09-1 by agar dilution method. The class given is functional.
Series [12] deals with Staphylococcus aureus. Kind of series: Antibacterial activity against methicillin-sensitive Staphylococcus aureus 09-6 by agar dilution method. Type of series: functional.
For series [13], the system named is Staphylococcus aureus. Briefly: Antibacterial activity against methicillin-sensitive Staphylococcus aureus ATCC 29213 by agar dilution method. Type of series: functional.
Another series concerns Proteus mirabilis. Briefly: Antibacterial activity against Proteus mirabilis 09-1 by agar dilution method. The class given is functional.
For series [14], the system named is Escherichia coli. Kind of series: Antibacterial activity against extended-spectrum beta-lactamase-negative Escherichia coli ATCC 25922 by agar dilution method. Type of series: functional.
Series [15] has as its system Staphylococcus epidermidis. Briefly: Antibacterial activity against methicillin-sensitive Staphylococcus epidermidis 09-9 by agar dilution method. The class given is functional.
For series [16], the system named is Staphylococcus aureus. Kind of series: Antibacterial activity against methicillin-sensitive Staphylococcus aureus 15 by agar dilution method. The class given is functional.
Series [17] deals with Escherichia coli. Kind of series: Antibacterial activity against extended-spectrum beta-lactamase-negative Escherichia coli 09-20 by agar dilution method. Type of series: functional.
The subject of series [18] is Acinetobacter calcoaceticus. Briefly: Antibacterial activity against Acinetobacter calcoaceticus ATCC 19606 by agar dilution method. Type of series: functional.
Series [19] relates to Klebsiella pneumoniae. Briefly: Antibacterial activity against Klebsiella pneumoniae ATCC BAA-2146 expressing NDM-1 by agar dilution method. The class given is functional.
The test system of the next series is Providencia rettgeri. Kind of series: Antibacterial activity against Providencia rettgeri ATCC 31052 by agar dilution method. Type of series: functional.
Another series deals with Klebsiella aerogenes. Kind of series: Antibacterial activity against Enterobacter aerogenes 45102 by agar dilution method. The class given is functional.
The subject of series [20] is Enterococcus faecium. Kind of series: Antibacterial activity against vancomycin-resistant Enterococcus faecium ATCC 700221 by agar dilution method. The class given is functional.
For series [21], the system named is Staphylococcus epidermidis. Briefly: Antibacterial activity against methicillin-resistant Staphylococcus epidermidis 09-3 by agar dilution method. Type of series: functional.
In series [22] the test system is Enterococcus faecalis. Kind of series: Antibacterial activity against vancomycin-resistant Enterococcus faecalis 09-9 by agar dilution method. The class given is functional.
Series [23] relates to Enterococcus faecalis. Kind of series: Antibacterial activity against vancomycin-sensitive Enterococcus faecalis ATCC 29212 by agar dilution method. Type of series: functional.
In series [24] the test system is Enterococcus faecalis. Briefly: Antibacterial activity against vancomycin-resistant Enterococcus faecalis ATCC 51299 by agar dilution method. Type of series: functional.
Series [25] has as its system Enterococcus faecium. Briefly: Antibacterial activity against vancomycin-resistant Enterococcus faecium 05-8 by agar dilution method. Type of series: functional.
Series [26] has as its system Staphylococcus aureus. Kind of series: Antibacterial activity against methicillin-resistant Staphylococcus aureus ATCC 33591 by agar dilution method. The class given is functional.
The test system of series [27] is Enterococcus faecalis. Kind of series: Antibacterial activity against vancomycin-sensitive Enterococcus faecalis 09-8 by agar dilution method. Type of series: functional.
The next series has as its system Salmonella typhi. Briefly: Antibacterial activity against Salmonella typhi H901 by agar dilution method. As to conditions: Salmonella enterica. Type of series: functional, Salmonella enterica subsp. enterica serovar Typhi.
Series [28] deals with Staphylococcus aureus. Briefly: Antibacterial activity against methicillin-resistant Staphylococcus aureus 09-13 by agar dilution method. The class given is functional.
Series [29] deals with Staphylococcus epidermidis. Kind of series: Antibacterial activity against methicillin-sensitive Staphylococcus epidermidis ATCC 12228 by agar dilution method. The class given is functional.

For `c1cc(-c2cc3ccc(C4=NCCN4)cc3[nH]2)ccc1Oc1ccc(-c2cc3ccc(C4=NCCN4)cc3[nH]2)cc1`, the MIC (in general, the lowest concentration that inhibits growth of the organism) in the series on Enterococcus faecium [1] is 8 µg/mL (≈ 14.9 µM); in the series with Klebsiella pneumoniae [2], over 128 µg/mL; against Pseudomonas aeruginosa [3], over 128 µg/mL; against Klebsiella pneumoniae [4] it was over 128 µg/mL; with Escherichia coli [5], over 128 µg/mL; against Pseudomonas aeruginosa [6], over 128 µg/mL. Also, the minimal inhibitory concentration (MIC) with Proteus vulgaris, with Citrobacter freundii, in the series with Klebsiella pneumoniae [7], against Klebsiella pneumoniae [8], with Serratia marcescens and in the series on Morganella morganii was over 128 µg/mL in each case. In addition, the minimal inhibitory concentration (MIC) is over 128 µg/mL in the series on Enterobacter cloacae; over 128 µg/mL against Pseudomonas aeruginosa [10]; over 128 µg/mL against Escherichia coli [11]; 16 µg/mL (≈ 29.8 µM) against Staphylococcus aureus [12]; 16 µg/mL (≈ 29.8 µM) against Staphylococcus aureus [13]; over 128 µg/mL in the series on Proteus mirabilis. For the same compound, the minimal inhibitory concentration (MIC) against Escherichia coli [14] is over 128 µg/mL; in series [15] it was 2 µg/mL (≈ 3.73 µM); against Staphylococcus aureus [16] it was 8 µg/mL (≈ 14.9 µM); in the series on Escherichia coli [17], over 128 µg/mL; in [18], over 128 µg/mL; against Klebsiella pneumoniae [19], over 128 µg/mL. Also, the minimum inhibitory concentration (MIC) against Providencia rettgeri and against Klebsiella aerogenes was over 128 µg/mL in each case. In [9], half-maximal cytotoxicity (CC50 at 48 h) was put at 1.7 µg/mL (≈ 3.17 µM).

Regarding `C[C@H]1COc2c(N3CCN(C)CC3)c(F)cc3c(=O)c(C(=O)O)cn1c23.C[C@H]1COc2c(N3CCN(C)CC3)c(F)cc3c(=O)c(C(=O)O)cn1c23.O` [LEVOFLOXACIN], the MIC against Enterococcus faecium [1] was 64 µg/mL; with Enterococcus faecium [20], 64 µg/mL; in the series with Proteus vulgaris, at most 0.03 µg/mL; in the series on Citrobacter freundii it was at most 0.03 µg/mL; with Klebsiella pneumoniae [7], 4 µg/mL; in series [21], 8 µg/mL. For the same compound, the MIC is at most 0.03 µg/mL in the series on Klebsiella pneumoniae [8]; 128 µg/mL against Enterococcus faecalis [22]; 0.5 µg/mL in the series with Enterococcus faecalis [23]; 0.5 µg/mL in the series with Enterococcus faecalis [24]; 0.25 µg/mL in the series on Serratia marcescens; 64 µg/mL against Enterococcus faecium [25]. Further, the MIC against Morganella morganii was at most 0.03 µg/mL; in the series with Enterobacter cloacae it was 0.06 µg/mL; against Escherichia coli [11], 16 µg/mL; in the series on Staphylococcus aureus [12] it was 0.25 µg/mL; with Staphylococcus aureus [13] it was 0.125 µg/mL; against Staphylococcus aureus [26], 0.125 µg/mL. The MIC in the series on Proteus mirabilis is 2 µg/mL; in the series with Enterococcus faecalis [27], 1 µg/mL; against Salmonella typhi, at most 0.03 µg/mL; against Escherichia coli [14] it was 0.03 to 0.06 µg/mL; in series [15], 8 µg/mL; in the series on Staphylococcus aureus [16], 0.125 µg/mL. Also, the MIC was 0.25 µg/mL in series [18]; 32 µg/mL against Staphylococcus aureus [28]; over 128 µg/mL with Klebsiella pneumoniae [19]; at most 0.03 µg/mL against Providencia rettgeri; 0.06 µg/mL in the series with Klebsiella aerogenes; 0.25 µg/mL in [29].

For `CN[C@H](CC(C)C)C(=O)N[C@H]1C(=O)N[C@@H](CC(N)=O)C(=O)N[C@H]2C(=O)N[C@H]3C(=O)N[C@H](C(=O)N[C@H](C(=O)O)c4cc(O)cc(O)c4-c4cc3ccc4O)[C@H](O)c3ccc(c(Cl)c3)Oc3cc2cc(c3O[C@@H]2O[C@H](CO)[C@@H](O)[C@H](O)[C@H]2O[C@H]2C[C@](C)(N)[C@H](O)[C@H](C)O2)Oc2ccc(cc2Cl)[C@H]1O` [VANCOMYCIN], the MIC is 1 µg/mL (≈ 0.69 µM) with Enterococcus faecalis [23], 1 µg/mL (≈ 0.69 µM) in the series on Enterococcus faecalis [27], 0.5 µg/mL (≈ 0.345 µM) in series [15] and 0.5 µg/mL (≈ 0.345 µM) in series [29].
